# Laboratory results taken from patent publication US4205069A, “Dipeptide narcotic antagonists” (American Home Products Corporation, priority 1978, dated 1980).
# Key:
# [1] = test system: morphine-induced analgesia; assay: Antagonism of morphine-induced analgesia, tail-flick test; type: in vivo, rat; conditions: rats, tail-flick latency >8 sec
# Description: (§1) Duration of analgesia may conveniently be determined by testing for analgesia at regular intervals using a modification of the procedure of D'Amour and Smith, J. Pharmacol., 72, 74 (1941), the tail-flick test. In this test, the existence of analgesia in a rat is determined by measuring the increase in the latency period during which a rat will tolerate a high intensity light beam shining on the tip of its tail.
# ^a All rats were tested at 5minute intervals in the tailflick test
# until latencies of 2 to 5 sec. were obtained on three consecutive trials.
# All rats then received an injection of morphine sulfate (as indicated in
# the table) and were returned to the tailflick test until three consecutiv
# trials with no movement of the tail for 8 seconds were obtained. The rats
# then received a subcutaneous injection of the test compound, or a control
# injection, and were returned to the tailflick test to determine the
# ^b The duration score is the number of minutes the animal was
# completely analgesic (tailflick latency >8 sec.) following injection of […]
# [2] = test system: analgesia produced by intraventricular HTyr-D-Ala-Gly-Phe-D-Leu-NH2; assay: Antagonism of enkephalin analog-induced analgesia, tail-flick test; type: in vivo, rat; conditions: rats, HTyr-D-Ala-Gly-Phe-D-Leu-NH2 1 μg intraventricular
# Description: as §1
# ^a The procedure is the same as in Example 11 except that analgesia
# was produced by an intraventricular injection of
# HTyr-D-Ala-Gly-Phe-D-Leu-NH2, 1 μg. in 10 μ1. of Ringers
# ^b The duration score was the same as in Table 1.
# [3] = morphine sulfate 2.5 mg/kg subcutaneously, test compound 2.5 mg/kg s.c.
# [4] = morphine sulfate 2.5 mg/kg subcutaneously, test compound 5 mg/kg s.c.
# [5] = morphine sulfate 5 mg/kg intraperitoneally, test compound 5 mg/kg s.c.
Compound,"Mean Duration of Analgesia [1, 3]","Mean Duration of Analgesia [1, 4]","Mean Duration of Analgesia ([1]; morphine sulfate 5 mg/kg intraperitoneally, test compound 2.5 mg/kg s.c.)","Mean Duration of Analgesia [1, 5]",Mean Duration of Analgesia ([2]; test compound 1.25 mg/kg s.c.),Mean Duration of Analgesia ([2]; test compound 5 mg/kg s.c.),Mean Duration of Analgesia ([2]; test compound 10 mg/kg s.c.),"Mean Duration of Analgesia ([1]; morphine sulfate 2.5 mg/kg subcutaneously, test compound 1 mg/kg s.c.)"
"COC(=O)[C@@H](C)NC(=O)[C@@H](N)Cc1ccc(O)cc1 [H-Tyr-D-Ala-O-Me, H-Tyr-D-Ala-OMe]",45.00 min,61.67 min,37.50 min,27.50 min,20.0 min,5.0 min,50.0 min,
C[C@@H](NC(=O)[C@@H](N)Cc1ccc(O)cc1)C(N)=O [H-Tyr-D-Ala-NH2],55.00 min,40.00 min,,41.67 min,,31.0 min,,> 90.00 min
